{
  "source": "patent US7652013B2",
  "about": "“Inhibitors of stearoyl-CoA desaturase” (Hoffman-La Roche Inc., priority 2007, dated 2010)",
  "key": {"[1]": {"biological_target": "T1, SCD1 (Mus musculus, UniProt P13516)", "T1 construct": "Mouse liver microsomes, prepared from mice fed a high carbohydrate diet, were a source of the SCD; from tissue; host or cells: mouse liver microsomes (mice fed a high carbohydrate diet)", "T1 sequence (P13516 1-355)": "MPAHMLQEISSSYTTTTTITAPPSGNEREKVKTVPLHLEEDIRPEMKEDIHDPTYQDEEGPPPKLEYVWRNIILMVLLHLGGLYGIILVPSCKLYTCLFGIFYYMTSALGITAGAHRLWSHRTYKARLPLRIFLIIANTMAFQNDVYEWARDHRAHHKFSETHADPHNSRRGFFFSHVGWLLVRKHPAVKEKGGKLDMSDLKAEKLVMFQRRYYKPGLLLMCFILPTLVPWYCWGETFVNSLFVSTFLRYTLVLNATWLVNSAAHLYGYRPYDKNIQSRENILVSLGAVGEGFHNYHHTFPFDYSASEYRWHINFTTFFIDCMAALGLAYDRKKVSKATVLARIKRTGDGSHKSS", "test": "SCD assay: release of tritiated water from desaturation of 9,10-3H-stearoyl CoA, mouse liver microsomes", "format": "biochemical", "description": "Stearoyl CoA desaturase activity was monitored by a modification of the acyl carrier protein assay described by B. R. Talamo and K. Bloch in Anal. Biochem. 1968, 29, 300-304. The SCD assay monitors the release of tritiated water from the desaturation of 9,10-^3H-stearoyl CoA.\nMouse liver microsomes, prepared from mice fed a high carbohydrate diet, were a source of the SCD and cyt b5 and cyt b5 reductase, necessary accessory proteins for the coupled reaction. Reaction mixtures for compound titrations contained 50 mM Tris HCl pH 7.5, 100 mM NaCl, 0.165 mg/ml BSA, 2.4% DMSO, 1 mM NADH, 0.03% T-20, and 300 nM (9,10) ^3H-stearoyl CoA (Perkin-Elmer). Reactions were initiated upon the addition of 4 ug/ml SCD microsomes. Incubations were terminated after 25 minutes at room temperature with cold 6% TCA. After standing 10 minutes at 4 deg C., samples were centrifuged 15 minutes at 4000 rpm to pellet precipitated protein. Supernatants were added to microtiter plates containing suspensions of activated charcoal (Darco G-60, Fisher Scientific) and mixed by inversion. Plates were then centrifuged to separate ^3H—H2O product from charcoal-bound reactants. Supernatants were quantitated in a Perkin Elmer Topcount 384 after solubilization in ScintiSafe Plus 50% (Fisher Scientific).\nInhibition (%) of SCD activity by compounds was calculated according to the following formula: % Inhibition=100*[1−(CPMsample−CPMblank)/(CPMtotal−CPMblank)]"}},
  "data": [
    {"compound": "O=c1cc(N2CCN(Cc3ccc(F)cc3Cl)CC2)nc[nH]1", "note": "[Example 32, 6-[4-(2-Chloro-4-fluoro-benzyl)-piperazin-1-yl]-3H -pyrimidin-4-one]", "values": [
      {"measurement": "IC50", "setting": "[1]", "result": "≥ 1100", "unit": "nM"},
      {"measurement": "melting point", "result": "255 to 256 °C (dec.)"}
    ]},
    {"compound": "O=c1cc(N2CCN(Cc3cccc(F)c3)CC2)nc[nH]1", "note": "[Example 33, 6-[4-(3-Fluoro-benzyl)-piperazin-1-yl]-3H-pyrimidin-4-one]", "values": [
      {"measurement": "IC50", "setting": "[1]", "result": "≥ 1100", "unit": "nM"},
      {"measurement": "melting point", "result": "273 to 275 °C (dec.)"}
    ]},
    {"compound": "O=c1cc(N2CCN(Cc3ccc(Br)cc3F)CC2)nc[nH]1", "note": "[Example 34, 6-[4-(4-Bromo-2-fluoro-benzyl)-piperazin-1-yl]-3H -pyrimidin-4-one]", "values": [
      {"measurement": "IC50", "setting": "[1]", "result": "≥ 1100", "unit": "nM"},
      {"measurement": "melting point", "result": "275 to 276", "unit": "°C"}
    ]},
    {"compound": "O=c1cc(N2CCN(Cc3cccc(Cl)c3O)CC2)nc[nH]1", "note": "[Example 45, 6-[4-(3-Chloro-2-hydroxy-benzyl)-piperazin-1-yl]-3H -pyrimidin-4-one]", "values": [
      {"measurement": "IC50", "setting": "[1]", "result": "≤ 1000", "unit": "nM"}
    ]},
    {"compound": "O=c1cc(N2CCN(Cc3cc(Cl)ccc3O)CC2)nc[nH]1", "note": "[Example 46, 6-[4-(5-Chloro-2-hydroxy-benzyl)-piperazin-1-yl]-3H -pyrimidin-4-one]", "values": [
      {"measurement": "IC50", "setting": "[1]", "result": "≤ 1000", "unit": "nM"}
    ]},
    {"compound": "Cc1cc(Cl)cc(CN2CCN(c3cc(=O)[nH]cn3)CC2)c1O", "note": "[Example 47, 6-[4-(5-Chloro-2-hydroxy-3-methyl-benzyl)-piperazin-1-yl]-3H-pyrimidin-4-one]", "values": [
      {"measurement": "IC50", "setting": "[1]", "result": "≤ 1000", "unit": "nM"}
    ]},
    {"compound": "O=c1cc(N2CCN(Cc3cccc(Br)c3O)CC2)nc[nH]1", "note": "[Example 48, 6-[4-(3-Bromo-2-hydroxy-benzyl)-piperazin-1-yl]-3H -pyrimidin-4-one]", "values": [
      {"measurement": "IC50", "setting": "[1]", "result": "≤ 1000", "unit": "nM"}
    ]},
    {"compound": "O=c1cc(N2CCN(Cc3cc(Br)cc(Br)c3O)CC2)nc[nH]1", "note": "[Example 49, 6-[4-(3,5-Dibromo-2-hydroxy-benzyl)-piperazin-1-yl]-3H-pyrimidin-4-one]", "values": [
      {"measurement": "IC50", "setting": "[1]", "result": "≤ 1000", "unit": "nM"}
    ]},
    {"compound": "O=c1cc(N2CCN(Cc3cc(Cl)cc(Br)c3O)CC2)nc[nH]1", "note": "[Example 50, 6-[4-(3-Bromo-5-chloro-2-hydroxy-benzyl)-piperazin-1-yl]-3H-pyrimidin-4-one]", "values": [
      {"measurement": "IC50", "setting": "[1]", "result": "≤ 1000", "unit": "nM"}
    ]},
    {"compound": "O=c1cc(N2CCN(Cc3cc(I)ccc3O)CC2)nc[nH]1", "note": "[Example 51, 6-[4-(2-Hydroxy-5-iodo-benzyl)-piperazin-1-yl]-3H -pyrimidin-4-one]", "values": [
      {"measurement": "IC50", "setting": "[1]", "result": "≤ 1000", "unit": "nM"}
    ]},
    {"compound": "C=CCc1cc(CN2CCN(c3cc(=O)[nH]cn3)CC2)c(O)c(OC)c1", "note": "[Example 52, 6-[4-(5-Allyl-2-hydroxy-3-methoxy-benzyl)-piperazin-1-yl]-3H -pyrimidin-4-one]", "values": [
      {"measurement": "IC50", "setting": "[1]", "result": "≥ 1100", "unit": "nM"}
    ]},
    {"compound": "COc1cc(Cl)cc(CN2CCN(c3cc(=O)[nH]cn3)CC2)c1O", "note": "[Example 53, 6-[4-(5-Chloro-2-hydroxy-3-methoxy-benzyl)-piperazin-1-yl]-3H -pyrimidin-4-one]", "values": [
      {"measurement": "IC50", "setting": "[1]", "result": "≤ 1000", "unit": "nM"}
    ]},
    {"compound": "COc1cc(I)cc(CN2CCN(c3cc(=O)[nH]cn3)CC2)c1O", "note": "[Example 54, 6-[4-(2-Hydroxy-5-iodo-3-methoxy-benzyl)-piperazin-1-yl]-3H -pyrimidin-4-one]", "values": [
      {"measurement": "IC50", "setting": "[1]", "result": "≤ 1000", "unit": "nM"}
    ]},
    {"compound": "COc1cc([N+](=O)[O-])cc(CN2CCN(c3cc(=O)[nH]cn3)CC2)c1O", "note": "[Example 55, 6-[4-(2-Hydroxy-3-methoxy-5-nitro-benzyl)-piperazin-1-yl]-3H-pyrimidin-4-one]", "values": [
      {"measurement": "IC50", "setting": "[1]", "result": "≥ 1100", "unit": "nM"}
    ]}
  ]
}
